The values below come from BindingDB's records for doi:10.1210/en.2002-221074 (National Institute of Diabetes and Digestive and Kidney …, 2003).

For assay [1], the target named is T1, Pro-thyrotropin-releasing hormone-B (Xenopus sp., UniProt Q00643).
T1 sequence (Q00643 whole entry): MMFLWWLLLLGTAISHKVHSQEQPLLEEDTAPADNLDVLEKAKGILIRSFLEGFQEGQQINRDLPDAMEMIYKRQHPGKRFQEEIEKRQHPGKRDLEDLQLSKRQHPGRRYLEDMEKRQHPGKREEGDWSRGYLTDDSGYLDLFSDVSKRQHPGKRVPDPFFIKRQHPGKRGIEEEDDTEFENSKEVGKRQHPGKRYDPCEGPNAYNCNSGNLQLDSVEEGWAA

Assay [2] has as its target T2, Thyrotropin-releasing hormone receptor (Xenopus laevis, UniProt Q9DDR1).
T2 sequence (Q9DDR1 whole entry): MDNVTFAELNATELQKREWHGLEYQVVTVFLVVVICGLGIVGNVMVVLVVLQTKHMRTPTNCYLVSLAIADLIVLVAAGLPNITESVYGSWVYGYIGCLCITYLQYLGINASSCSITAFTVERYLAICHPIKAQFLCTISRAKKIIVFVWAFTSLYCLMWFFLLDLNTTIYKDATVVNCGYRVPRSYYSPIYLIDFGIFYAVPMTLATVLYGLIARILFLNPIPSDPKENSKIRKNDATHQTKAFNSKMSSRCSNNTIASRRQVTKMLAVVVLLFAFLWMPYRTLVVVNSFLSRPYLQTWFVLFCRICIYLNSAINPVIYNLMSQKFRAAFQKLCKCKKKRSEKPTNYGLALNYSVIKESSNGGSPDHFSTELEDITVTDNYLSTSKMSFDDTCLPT

In assay [3] the target is T3, Thyrotropin-releasing hormone receptor (Mus musculus, UniProt P21761).
T3 sequence (P21761 whole entry): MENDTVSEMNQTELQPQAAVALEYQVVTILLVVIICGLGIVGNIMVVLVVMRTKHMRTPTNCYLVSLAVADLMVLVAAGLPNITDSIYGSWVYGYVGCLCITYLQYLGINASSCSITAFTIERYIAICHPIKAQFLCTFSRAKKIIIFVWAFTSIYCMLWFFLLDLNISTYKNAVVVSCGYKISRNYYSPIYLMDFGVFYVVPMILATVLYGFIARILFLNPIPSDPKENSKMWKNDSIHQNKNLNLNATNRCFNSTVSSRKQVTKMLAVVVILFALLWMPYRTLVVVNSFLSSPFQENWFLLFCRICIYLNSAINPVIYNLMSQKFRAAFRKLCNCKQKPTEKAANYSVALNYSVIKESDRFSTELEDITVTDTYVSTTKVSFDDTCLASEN

Some results are limits rather than exact numbers.

With `NC(=O)C1CCCN1C(=O)C(Cc1cnc[nH]1)NC(=O)C1CCC(=O)C1` (stereo not given) [Desaza1TRH], the Ki in assay [1] was above 10 µM; in assay [2] it was 3 µM.

As to `NC(=O)C1CCCN1C(=O)C(Cc1cnc[nH]1)NC(=O)[C@@H]1CCC(=O)C1` (stereo not given in full) [Pyr3TRH], the inhibitory constant (Ki) in assay [1], in assay [2] and in assay [3] was above 10 µM in each case.

A word on the Ki: it is a measure of affinity in units of concentration, obtained from inhibition or displacement. High values mean weaker binding, low ones tighter binding.
